Source: ChEMBL document CHEMBL1154168, “New 2-aryloxy-3-phenyl-propanoic acids as peroxisome proliferator-activated receptors alpha/gamma dual agonists with improved potency and reduced adverse effects on skeletal muscle function” (J Med Chem, 2009)
Active and inactive are the calls of the source. The rule behind the calls is not given here.

Experiments:
[1] = target: T1, Peroxisome proliferator-activated receptor gamma (Homo sapiens, UniProt P37231)
T1 sequence (P37231 whole entry): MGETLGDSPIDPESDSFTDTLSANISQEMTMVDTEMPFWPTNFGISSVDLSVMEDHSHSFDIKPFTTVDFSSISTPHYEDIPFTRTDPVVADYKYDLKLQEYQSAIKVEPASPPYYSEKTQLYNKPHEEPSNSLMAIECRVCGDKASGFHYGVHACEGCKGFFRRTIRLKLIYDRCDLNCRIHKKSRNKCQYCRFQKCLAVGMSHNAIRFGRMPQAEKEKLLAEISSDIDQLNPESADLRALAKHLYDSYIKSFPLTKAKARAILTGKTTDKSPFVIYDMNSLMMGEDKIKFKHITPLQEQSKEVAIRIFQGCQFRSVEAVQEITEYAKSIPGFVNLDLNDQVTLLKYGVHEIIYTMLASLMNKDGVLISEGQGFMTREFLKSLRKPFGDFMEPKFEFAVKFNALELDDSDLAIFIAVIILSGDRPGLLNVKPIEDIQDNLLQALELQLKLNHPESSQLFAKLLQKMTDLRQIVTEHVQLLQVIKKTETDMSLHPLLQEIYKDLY

[2] = target: T2, Peroxisome proliferator-activated receptor alpha (Homo sapiens, UniProt Q07869); assay: Agonist activity at GAL4-tagged human PPARalpha ligand binding domain expressed in human HepG2 cells assessed as receptor transactivation by luciferase reporter gene assay; type: cell-based
T2 sequence (Q07869 whole entry): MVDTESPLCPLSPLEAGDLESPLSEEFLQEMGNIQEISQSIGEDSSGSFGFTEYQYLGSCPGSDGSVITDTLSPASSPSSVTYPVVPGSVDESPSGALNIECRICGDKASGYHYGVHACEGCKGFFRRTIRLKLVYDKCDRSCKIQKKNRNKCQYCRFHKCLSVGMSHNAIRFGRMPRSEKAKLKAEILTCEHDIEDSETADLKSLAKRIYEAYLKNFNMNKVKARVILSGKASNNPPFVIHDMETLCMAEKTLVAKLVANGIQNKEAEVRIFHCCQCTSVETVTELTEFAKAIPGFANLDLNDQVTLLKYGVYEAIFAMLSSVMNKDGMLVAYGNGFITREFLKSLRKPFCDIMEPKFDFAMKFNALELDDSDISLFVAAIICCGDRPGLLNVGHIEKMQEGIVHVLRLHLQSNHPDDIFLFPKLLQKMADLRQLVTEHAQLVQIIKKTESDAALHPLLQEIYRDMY

[3] = target: T3, Chloride channel isoform 1 (Rattus norvegicus) (UniProt Q7TT78); assay: Inhibition of CIC1 in Wistar rat extensor digitorum longus muscle assessed as decrease in resting chloride channel conductance at 50 uM by electrophysiology method; type: tissue-based; set-up: scale not given: the % may be the effect or the level left
T3 sequence (whole entry): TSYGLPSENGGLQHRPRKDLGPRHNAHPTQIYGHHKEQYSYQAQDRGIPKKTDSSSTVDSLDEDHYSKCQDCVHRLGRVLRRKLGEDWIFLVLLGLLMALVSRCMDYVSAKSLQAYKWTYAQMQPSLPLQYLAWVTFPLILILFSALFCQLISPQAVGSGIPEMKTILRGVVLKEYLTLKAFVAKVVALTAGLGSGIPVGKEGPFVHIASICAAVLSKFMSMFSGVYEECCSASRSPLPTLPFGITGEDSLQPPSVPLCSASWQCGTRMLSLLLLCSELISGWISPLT

[4] = target: T3, Chloride channel isoform 1 (Rattus norvegicus); assay: Inhibition of CIC1 in Wistar rat extensor digitorum longus muscle assessed as decrease in resting chloride channel conductance at 100 uM by electrophysiology method; type: tissue-based; set-up: scale not given: the % may be the effect or the level left
[5] = system: Extensor digitorum longus; assay: Inhibition of resting potassium conductance in Wistar rat extensor digitorum longus muscle by electrophysiology method; type: functional, tissue-based
[6] = target: T4, Peroxisome proliferator-activated receptor alpha (Homo sapiens) (UniProt Q07869); assay: Agonist activity at GAL4-tagged human PPARalpha ligand binding domain expressed in human HepG2 cells assessed as receptor transactivation by luciferase reporter gene assay relative to Wy-14643; type: cell-based
T4 sequence (whole entry): T2 sequence (Q07869 whole entry)

[7] = target: T3, Chloride channel isoform 1 (Rattus norvegicus); assay: Inhibition of CIC1 in Wistar rat extensor digitorum longus muscle assessed as decrease in resting chloride channel conductance at 5 uM by electrophysiology method; type: tissue-based; set-up: scale not given: the % may be the effect or the level left
[8] = target: T1, Peroxisome proliferator-activated receptor gamma; conditions: hepg2

EC50 [1] [µM] | EC50 ([2]; read-out: EC50) [µM] | Efficacy [6] | SMILES | other results
0.572 | 0.0115 | – | O=C(O)[C@H](Cc1ccccc1)Oc1ccc(Cc2ccccc2)cc1 | Activity [3]: 2%; Activity [4]: 9%; Activity [5]: inactive
0.4 | – | – | O=C(O)[C@H](Cc1ccccc1)Oc1ccc(CCc2ccccc2)cc1 | Activity [4]: 24%; Activity [5]: inactive
1.6 | – | inactive | O=C(O)[C@@H](Cc1ccccc1)Oc1ccc(CCc2ccccc2)cc1 | EC50 ([2]; hepg2): Not Active
5.7 | 2.4 | 82% | O=C(O)[C@@H](Cc1ccccc1)Oc1ccc(Cc2ccccc2)cc1 | –
– | – | – | CC(C)(Oc1ccc(C(=O)c2ccc(Cl)cc2)cc1)C(=O)O | Activity [4]: 11%
– | – | – | CC(C)(Oc1ccc(Cl)cc1)C(=O)O | Activity [4]: 28%
– | – | 116% | O=C(O)[C@H](Cc1ccccc1)Oc1ccc(-c2ccccc2)cc1 | Activity [7]: 2%; Activity [4]: 12%; Activity [5]: inactive
2.4 | 0.107 | 112% | O=C(O)C(Cc1ccccc1)Oc1ccc(OCc2ccccc2)cc1 (racemic) | –
3 | 0.6 | 107% | O=C(O)C(Cc1ccccc1)Oc1ccc(COc2ccccc2)cc1 (racemic) | –
0.58 | 0.0159 | 115% | O=C(O)C(Cc1ccccc1)Oc1ccc(Cc2ccccc2)cc1 (racemic) | –
1.4 | 0.488 | 134% | O=C(O)C(Cc1ccccc1)Oc1ccc(SCc2ccccc2)cc1 (racemic) | –
9.1 | 1.8 | 106% | O=C(Cc1ccccc1)c1ccc(OC(Cc2ccccc2)C(=O)O)cc1 (racemic) | –
0.86 | 0.33 | 86% | O=C(O)C(Cc1ccccc1)Oc1ccc(CCc2ccccc2)cc1 (racemic) | –
– | 0.72 | 67% | O=C(O)C(Cc1ccccc1)Oc1ccc(CCCc2ccccc2)cc1 (racemic) | –
9.4 | 1.4 | 120% | O=C(O)C(Cc1ccccc1)Oc1ccc(CNc2ccccc2)cc1 (racemic) | –
1.21 | 0.06 | 126% | O=C(O)C(Cc1ccccc1)Oc1ccc(Oc2ccccc2)cc1 (racemic) | –
13 | 3.6 | 78% | O=C(O)C(Cc1ccccc1)Oc1ccc(NCc2ccccc2)cc1 (racemic) | –
– | – | – | Cc1cccc(Nc2cc(Cl)nc(SCC(=O)O)n2)c1C [PIRINIXIC ACID] | EC50 [8]: Not Active

SMILES | EC50 [1] [µM] | EC50 ([2]; read-out: EC50) [µM] | Efficacy [6] | other results
O=C(O)C(Cc1ccccc1)Oc1ccc(CSc2ccccc2)cc1 (racemic) | 0.4 | 0.31 | 92% | –
O=C(O)C(Cc1ccccc1)Oc1ccc(C#Cc2ccccc2)cc1 (racemic) | 0.54 | 1.36 | 36% | –
CN(CCOc1ccc(CC2SC(=O)NC2=O)cc1)c1ccccn1 (stereo not drawn) [ROSIGLITAZONE] | – | – | inactive | EC50 ([2]; hepg2): Not Active
